Reference: publication PMC9718554, “Discovery of a fragment hit compound targeting D-Ala:D-Ala ligase of bacterial peptidoglycan biosynthesis” (Journal of Enzyme Inhibition and Medicinal Chemistry, 2022)
Like-named read-outs stand apart in the source and are kept apart here.

Molecular target: T1, E. coli DdlB enzyme (D-alanine:D-alanine ligase) (Escherichia coli, UniProt P07862)
T1 construct: made in house; host or cells: E. coli
Assay: biochemical
Details: for remaining activity at 1800 µM: tested concentration 1.8 mM; for remaining activity at 1700 µM: tested concentration 1.7 mM; for remaining activity at 3000 µM: tested concentration 3.0 mM; for remaining activity at 2800 µM: tested concentration 2.8 mM; for remaining activity at 2500 µM: tested concentration 2.5 mM; for remaining activity at 2300 µM: tested concentration 2.3 mM; for remaining activity at 2000 µM: tested concentration 2.0 mM; for remaining activity at 2600 µM: tested concentration 2.6 mM; for remaining activity at 2100 µM: tested concentration 2.1 mM
Procedure: The fragment library was assayed in a DdlB inhibition assay, where fragments were tested for their ability to inhibit the D-Ala-adding activity of DdlB ligase. The orthophosphate formed during the enzymatic reaction was measured spectrophotometrically using malachite green reagent.
A recombinant E. coli DdlB enzyme (D-alanine:D-alanine ligase) was expressed in E. coli[11]. […] The final DMSO concentration was 5%. […] All experiments were performed in duplicates. […] IC50 values were determined by measuring the residual activities in quadruplicate at seven different compound concentrations and calculated using in GraphPad Prism (GraphPad Software, San Diego, CA, USA).

[1] = fragment library screening, read-out: DdlB RA
[2] = residual activity, read-out: DdlB RA
[3] = residual activity of DdlB, fragment library screening, read-out: DdlB RA

`Cc1onc(C(=O)O)c1COc1ccc([N+](=O)[O-])cc1` [Compound Y504-8568] showed a remaining activity at 1800 µM [1] of 97%.

In the case of `O=C(COc1cccc(Br)c1)Nc1nnc[nH]1` [Compound 4491-0732], the remaining activity at 1700 µM (read-out: DdlB RA) was 94%.

Molecule `O=C(O)c1cc(S(=O)(=O)N2CCCC2)ccc1O` [Compound 8019-7119] has a remaining activity at 1800 µM [2] of 97%.

In the case of `CC(=O)N1CC(c2nc(C)no2)C2(CNC2)C1` (stereo not drawn) [SB57-1191], the remaining activity at 2200 µM (tested concentration 2.2 mM, read-out: DdlB RA) was 69%.

`CN(CC1CCOC1)C(=O)C1CC1` (stereo not drawn) [Compound S213-1842] was tested, and the remaining activity at 3000 µM [3] was 91%.

`C#CC(=O)NCc1ccc(F)cc1F` [Compound T001-0851] showed a remaining activity at 2800 µM (read-out: DdlB RA) of 93%.

For `C/C=C/c1ccc(OC)cc1` [FLD073], the remaining activity at 2500 µM [3] was 100%.

`O=C(O)c1cnn2c(-c3cccs3)ccnc12` [Compound 15, 7-(Thiophen-2-yl)pyrazolo[1,5-a]pyrimidine-3-carboxylic acid] was tested, and the remaining activity at 1000 µM (at 1 mM, read-out: DdlB inhibition, RA (Residual Activity)) was 96%.

With `Cc1ccc(C)c(S(=O)(=O)O)c1` [FLD115] the remaining activity at 2500 µM [3] was 94%.

Molecule `Oc1nonc1N1CCCC1` [Compound 8018-8553] has a remaining activity at 3200 µM (tested concentration 3.2 mM, read-out: DdlB RA) of 116%.

`CCn1c(C(=O)NC(C)C)cc2occc21` [Compound Z601-0941] gave a remaining activity at 2300 µM (read-out: DdlB RA) of 96%.

With `CC(c1c[nH]c2ccccc12)C(O)C(=O)O` (stereo not drawn) [Compound 8019-4518] the remaining activity at 2300 µM [2] was 100%.

In the case of `CC(C)C(=O)N1CCC2(CCNC(=O)CC2)CC1` [Compound S509-1270], the remaining activity at 2000 µM (read-out: DdlB RA) was 93%.

Work on `CCS(=O)(=O)Nc1cc(C(C)(C)C)on1` [Compound Y206-0720] yielded a remaining activity at 2600 µM (read-out: DdlB RA) of 91%.

Work on `CC(=O)NCCc1ccc(S(N)(=O)=O)cc1` [Compound 2332-0866] yielded a remaining activity at 2100 µM (read-out: DdlB RA) of 94%.

`CCS(=O)(=O)Nc1cccc(F)c1` [Compound Y207-1326] was tested, and the remaining activity at 3000 µM (read-out: DdlB RA) was 92%.

In the case of `CC1CCOB(O)O1` (stereo not drawn) [Compound 0199-0113], the remaining activity at 4300 µM (tested concentration 4.3 mM, read-out: DdlB RA) was 89%.

Molecule `N#CC1CC(c2cccc(Cl)c2)=NO1` (stereo not drawn) [Compound 8020-2797] has a remaining activity at 2900 µM (tested concentration 2.9 mM, read-out: DdlB RA) of 107%.

For `O=C(O)CCCC(=O)N1CCN(c2ccccc2)CC1` [Compound Y204-6418], the remaining activity at 1800 µM [1] was 99%.

With `CC(C)c1nnc(-c2cnccn2)o1` [Compound Z632-7479] the remaining activity at 2600 µM (read-out: DdlB RA) was 105%.

With `CCOc1ccc([C@@H](CC(=O)O)NC(C)=O)cc1` [Compound 6705-0233] the remaining activity at 2000 µM [1] was 87%.

With `O=C(O)c1cc(Br)cc(Br)c1O` [Compound Y501-3736] the remaining activity at 1700 µM (read-out: DdlB RA) was -39%.

For `CN(Cc1ccccc1)c1c(-c2ccccc2)c(=O)c1=O` [Compound E470-0301], the remaining activity at 1800 µM (read-out: DdlB RA) was 103%.

For `S=c1[nH]ncs1` [FLD079], the remaining activity at 2500 µM [3] was 81%.

`Cn1ncc(C(=O)O)c1C(=O)NCC1CCCO1` (stereo not drawn) [Compound Y504-5972] showed a remaining activity at 2000 µM (read-out: DdlB RA) of 96%.

Work on `CC1=NC(C)(C)CO1` [FLD188] yielded a remaining activity at 2500 µM [3] of 91%.

`Cc1cc(F)c(F)c(C(=O)n2ccnc2)c1Cl` [Compound 8009-4247] was tested, and the remaining activity at 2100 µM (read-out: DdlB RA) was 102%.

`Cc1ccc(C(=O)O)c(NC(=O)c2ccncc2)c1` [Compound 8006-9224] gave a remaining activity at 2000 µM [2] of 97%.

`CC1CN(c2ccccc2)NC1=O` (stereo not drawn) [Compound 8009-3796] gave a remaining activity at 3400 µM (residual activity of DdlB, fragment library screening, tested concentration 3.4 mM, read-out: DdlB RA) of 97%.

`Cc1ccc(S(=O)(=O)NC2CC2)c(C)c1` [Compound Y206-5066] was tested, and the remaining activity at 2700 µM (tested concentration 2.7 mM, read-out: DdlB RA) was 94%.

In the case of `NC(=O)c1cnn2c(-c3ccccc3)ccnc12` [Compound 21, 7-Phenylpyrazolo[1,5-a]pyrimidine-3-carboxamide], the remaining activity at 500 µM (at 0.5 mM, read-out: DdlB inhibition, RA (Residual Activity)) was 96%.

`Nc1c(Br)cc(Br)cc1C(=O)O` [FLD132] gave a remaining activity at 2500 µM [3] of 100%.

Molecule `CC(=O)N1CCC(O)C2CCCCC21` (stereo not drawn) [Compound 8014-2178] has a remaining activity at 2500 µM (read-out: DdlB RA) of 99%.

`Cc1nc(C#N)c(N2CCOCC2)o1` [Compound 8008-9715] was tested, and the remaining activity at 3100 µM (tested concentration 3.1 mM, read-out: DdlB RA) was 93%.

`N#CC1(N2CCOCC2)CCCC1` [Compound 8019-5695] gave a remaining activity at 2800 µM [3] of 105%.

Molecule `Cc1ccccc1C(=O)NCC(=O)O` [FLD033] has a remaining activity at 2500 µM [3] of 100%.

`Nc1cc(=O)[nH]o1` [Compound 8020-8247] showed a remaining activity at 5000 µM (tested concentration 5.0 mM, read-out: DdlB RA) of 97%.

`COc1ccc(OC)c(-c2oc3ccccc3c(=O)c2O)c1` [Compound 6877-0609] showed a remaining activity at 1700 µM (read-out: DdlB RA) of 102%.

`NC(=O)NC(=O)Cc1ccccc1` [FLD017] showed a remaining activity at 2500 µM [3] of 100%.
